Measurements taken from PMC3246456, “An Immunoassay for Dibutyl Phthalate Based on Direct Hapten Linkage to the Polystyrene Surface of Microtiter Plates” (PLoS ONE, 2011).

What was measured:
anti-DBP MAb [1] = experiment: Hapten coated icELISA (DBAP directly linked to polystyrene); type: binding, mouse; conditions: for CR (cross-reactivity): CR (%) = IC50 DBP/IC50 analogue×100; for inhibition: at 10 mg/mL; for antibody recognition: specificity of MAb
Method: (§1) An icELISA was used to assess the sensitivity of the MAb to free DBP and the cross-reactivities of structurally related compounds to the antibody. For competition, 50 µL of standards or diluted samples in assay buffer were placed in the wells, and 50 µL of the anti-DBP MAb diluted with assay buffer was added. After incubated for 1.5 h at 25°C, the plate was washed. The following procedure was followed as described for the inELISA. […] Standards and samples were run in triplicate wells, and the mean absorbance values were processed. Standard curves were obtained by plotting absorbance against the logarithm of analyte concentration and fitted with a logistic four-parameter equation y = (A−D)/[1+(x/C)^B]+D, where A is the absorbance value with no analyte present, B is the slope near the midpoint inhibition concentration, C is the concentration of analyte giving 50% inhibition (IC50), and D is the minimum absorbance value at infinite concentration of the analyte, [21]. Dynamic range was established between the concentrations producing 20% and 80% inhibition (IC20–IC80 or 80%–20% of the maximum response). Limit of detection (LOD) was determined as the concentration corresponding to 10% inhibitory concentration (IC10 or 90% of the maximum response) [22]–[24].
Polystyrene surface was first carboxylated by permanganate oxidation. Microwells were filled with a solution of 5% KMnO4 in 0.6 mol/L H2SO4 (150 µL/well) for 60 min at 60°C. The plates were washed with 6 mol/L HCl (3×5 min, 200 µL/well) to remove the brown manganese oxide and rinsed three times with distilled water giving polystyrene-COOH microwells [25]. Then 150 µL of EDC and hapten DBAP in 0.1 mol/L MES buffer (pH 5.0) were placed in the wells and incubated overnight under shaking (Fig. 2). The subsequent procedures were the same as conjugate coated inELISA or icELISA under optimal condition. The essential steps in direct attachment of hapten DBAP to polystyrene surface such as concentrations of EDC and conjugation temperatures were determined by the amount of antibody on the modified polystyrene surface measured by inELISA with coating concentration of 2 µg/mL DBAP and MAb dilution of 1∶2000. The optimal coating concentration of DBAP and dilution of MAb were determined by checkerboard titration.
To determine the specificity of MAb produced, the ability of the MAb to recognize several structurally related compounds (analogues) was tested by performing hapten coated icELISA and determining their respective IC50 values. The cross-reactivity (CR) values were calculated according to the following equation CR (%) = IC50 DBP/IC50 analogue×100 [23], [26].

MAb = experiment: Binding of MAb to hapten linked on polystyrene surface; set-up: species or system mouse; conditions: carboxylated hapten linked to polystyrene surface; absorbance at 492 nm too low
From the text: Although methods had already been reported for linking hapten to polystyrene surface, [11], it was not applicable to the hapten coated ELISA for DBP because the MAb produced hardly bound to the carboxylated hapten DBCP on polystyrene (The absorbance value at 492 nm was too low.). Thus it was needed to immobilize the aminated hapten DBAP to the surface of polystyrene. Holthues et al had linked an aminated hapten ABA–atrazine to a glutaraldehyde polymer network directly bound to polystyrene surface and developed very sensitive ELISA to detect terbutryn. However, it was a failure to establish hapten coated ELISA for DBP based on covalently linking DBAP to a glutaraldehyde polymer network on polystyrene surface. […] The hapten coated format presented is proposed as generally applicable, because the carboxyl on modified microtiter plate surface enables stable immobilization of aminated or hydroxylated hapten through EDC.

[2] = test system: antibodies in hybridoma culture supernatants; experiment: Hybridoma screening by icELISA with 1 µg/mL DBAP-BSA; type: binding, mouse; conditions: three competitive clones of 352 wells; coated antigen 1 µg/mL DBAP-BSA
Method: SP 2/0 murine myeloma cells were cultured in DMEM supplemented with 15% fetal bovine serum and 1% penicillin–streptomycin. Cell fusion and hybridoma culture procedures were carried out essentially as described by James. Mice splenocytes were mixed with SP 2/0 cells at the ratio of 5∶1 and centrifuged at 450 g for 5 min. One milliliters of polyethylene glycol solution at 37°C was dropped to the cell pellet over 1 min. The cell pellet was rotated for further 1 min, then 1 mL of DMEM added over 1 min, 2 mL of DMEM over 2 min. Finally, 12 mL was added over 2 min. After centrifugation at 450 g for 5 min, the cells were pelleted again, resuspended in HAT medium (DMEM containing 15% fetal bovine serum, 1% penicillin–streptomycin and 2% HAT media supplement) and plated into 96-well plates in which normal mouse peritoneal exudate cells (as feeder cells) had already been cultured 1 day before fusion. The colonies were fed every fifth day with freshly prepared HAT medium. […] The ratio of both absorbances was used as the criterion for selecting the best antibody-secreting clones. […]
An icELISA was used to assess the sensitivity of the MAb to free DBP and the cross-reactivities of structurally related compounds to the antibody. […] Standards and samples were run in triplicate wells, and the mean absorbance values were processed. […]

anti-DBP MAb [3] = experiment: Conjugate coated indirect competitive ELISA (icELISA), DBAP-BSA coated; type: binding, mouse
Method: Checkerboard titration, in which purified MAb was titrated against varying amounts of the coating hapten-conjugate was used to measure the reactivity of antibodies and to select an appropriate coating concentrations and antibody dilutions for icELISA [19]. The checkerboard assays were performed with inELISA. Microtiter plates were coated with 100 µL/well of hapten-protein conjugates (0, 0.125, 0.25, 0.5, and 1 µg/mL) in 0.05 mol/L carbonate buffer (pH 9.6) and incubated overnight at 4°C. The plates were washed three times with PBST (0.01 mol/L PBS containing 0.05% Tween-20, pH 7.4, 200 µL/well) and were blocked with 3% (w/v) skim milk powder (SMP) in PBS (250 µL/well) for 1 h at 37°C. After another washing step, 100 µL/well of purified anti-DBP MAb (1∶1000, 1∶2000, 1∶4000, 1∶8000, 1∶16000, and 1∶32000) diluted in PBS containing 0.1% BSA was added. After incubation for 1.5 h at 25°C, the plates were washed. Subsequently, the plates were incubated for 1 h at 37°C with 10000-fold diluted HRP-anti-mIgG in PBS containing 0.1% BSA (100 µL/well). After another washing step, 100 µL/well of freshly prepared O-phenylenediamine (OPD) solution (0.4 mg/mL OPD and 0.012% H2O2 in 0.05 mol/L citrate-phosphate, pH 5.0) was added. The reaction was stopped with 2 mol/L sulfuric acid (50 µL/well) after an incubation of 15 min at room temperature keeping away from light. The absorbance was recorded at a primary wavelength of 492 nm with a reference wavelength of 630 nm.
as §1
The influence of several experimental parameters on assay characteristics was examined in order to improve the sensitivity of the immunoassay. Concentrations of coating antigen and dilutions of MAb were determined by checkerboard titration. Other different experimental parameters such as organic solvents, pH, ionic strength, and detergent in assay buffer, and blocking agents were studied sequentially in this order using the above described icELISA protocol. Each time an evaluated parameter was changed, the new value was used for the evaluation of the next condition. Criteria used to evaluate the assay performances were the absorbance of zero concentration of DBP (Amax) and IC50.

polyclonal antibody = test system: polyclonal antibody; set-up: method as in PMID 16947007; conditions: cited from earlier work
[4] = cross-reactivity study, hapten coated icELISA, mean ±SD of three replicates
[5] = hapten coated icELISA, optimized conditions
[6] = conjugate coated icELISA, optimized conditions

Which IC50 (anti-DBP MAb [1]; [4]) does the source give for `CCCCOC(=O)c1ccccc1C(=O)OCc1ccccc1` [BBP, Butyl benzyl phthalate] here?
The IC50 was 0.0721 ± 0.0142 µg/mL.

For `CCCCOC(=O)c1ccc(N)cc1C(=O)OCCCC` [DBAP, dibutyl 4-aminophthalate], which “CR (cross-reactivity)” value (anti-DBP MAb [1]; hapten coated icELISA) is on record?
Its value is 27.8%.

What about the IC50 (anti-DBP MAb [1]; [4]) of the same molecule?
Its IC50 is 0.0529 ± 0.0124 µg/mL.

For `CCCCOC(=O)c1ccc(NC(=O)CCC(=O)O)cc1C(=O)OCCCC` [DBCP], which “binding of MAb to hapten on polystyrene” value (MAb) is on record?
Its value is “hardly bound”.

Which results are given for `CCCCOC(=O)c1ccccc1C(=O)OCCCC` [DBP, Dibutyl phthalate]?
CR (cross-reactivity) (anti-DBP MAb [1]; hapten coated icELISA): 100%; IC50 (anti-DBP MAb [1]; [4]): 0.0147 ± 0.0028 µg/mL; IC50 (anti-DBP MAb [1]; hapten coated icELISA standard curve, optimized conditions (DBAP 1 µg/mL, MAb 1:1000)): 0.0146 µg/mL; LOD (IC10) (anti-DBP MAb [1]; [5]): 0.000426 µg/mL; dynamic range (IC20–IC80) (anti-DBP MAb [1]; [5]): 0.00174 to 0.123 µg/mL; IC50 [2]: < 5 µg/mL; IC50 (blocking agent optimization) (anti-DBP MAb [3]; OVA as a blocking reagent (Fig. 4D)): 0.10813 ± 0.01952 µg/mL; IC50 (lowest, pH optimization) (anti-DBP MAb [3]; assay buffer pH 6.8 (Fig. 4A)): 177.04±15.37 ng/mL; IC50 (anti-DBP MAb [3]; assay buffer with 0% DMF (DMF series) in PBS containing 0.1% BSA, mean ±SD, three replicates): 0.369 ± 0.0274 µg/mL; IC50 (anti-DBP MAb [3]; assay buffer with 0% DMSO (DMSO series) in PBS containing 0.1% BSA, mean ±SD, three replicates): 0.392 ± 0.0702 µg/mL; IC50 (anti-DBP MAb [3]; assay buffer with 0% acetonitrile (acetonitrile series) in PBS containing 0.1% BSA, mean ±SD, three replicates): 0.471 ± 0.0306 µg/mL; IC50 (anti-DBP MAb [3]; assay buffer with 0% dioxane (dioxane series) in PBS containing 0.1% BSA, mean ±SD, three replicates): 0.797 ± 0.0198 µg/mL; IC50 (anti-DBP MAb [3]; assay buffer with 0% methanol (methanol series) in PBS containing 0.1% BSA, mean ±SD, three replicates): 1.4 ± 0.0643 µg/mL; IC50 (anti-DBP MAb [3]; assay buffer with 5% DMF in PBS containing 0.1% BSA, mean ±SD, three replicates): 0.303 ± 0.0302 µg/mL; IC50 (anti-DBP MAb [3]; assay buffer with 5% DMSO in PBS containing 0.1% BSA, mean ±SD, three replicates): 0.373 ± 0.0318 µg/mL; IC50 (anti-DBP MAb [3]; assay buffer with 5% acetonitrile in PBS containing 0.1% BSA, mean ±SD, three replicates): 0.444 ± 0.0118 µg/mL; IC50 (anti-DBP MAb [3]; assay buffer with 5% dioxane in PBS containing 0.1% BSA, mean ±SD, three replicates): 1.679 ± 0.271 µg/mL; IC50 (anti-DBP MAb [3]; assay buffer with 5% methanol in PBS containing 0.1% BSA, mean ±SD, three replicates): 0.637 ± 0.0671 µg/mL; IC50 (anti-DBP MAb [3]; assay buffer with 10% DMF in PBS containing 0.1% BSA, mean ±SD, three replicates): 0.223 ± 0.0118 µg/mL; IC50 (anti-DBP MAb [3]; assay buffer with 10% DMSO in PBS containing 0.1% BSA, mean ±SD, three replicates): 0.52 ± 0.0661 µg/mL; IC50 (anti-DBP MAb [3]; assay buffer with 10% acetonitrile in PBS containing 0.1% BSA, mean ±SD, three replicates): 0.325 ± 0.0088 µg/mL; IC50 (anti-DBP MAb [3]; assay buffer with 10% dioxane in PBS containing 0.1% BSA, mean ±SD, three replicates): 2.509 ± 0.504 µg/mL; IC50 (anti-DBP MAb [3]; assay buffer with 10% methanol in PBS containing 0.1% BSA, mean ±SD, three replicates): 0.624 ± 0.0145 µg/mL; IC50 (anti-DBP MAb [3]; assay buffer with 20% DMF in PBS containing 0.1% BSA, mean ±SD, three replicates): 0.345 ± 0.0175 µg/mL; IC50 (anti-DBP MAb [3]; assay buffer with 20% DMSO in PBS containing 0.1% BSA, mean ±SD, three replicates): 0.423 ± 0.053 µg/mL; IC50 (anti-DBP MAb [3]; assay buffer with 20% acetonitrile in PBS containing 0.1% BSA, mean ±SD, three replicates): 0.428 ± 0.0112 µg/mL; IC50 (anti-DBP MAb [3]; assay buffer with 20% dioxane in PBS containing 0.1% BSA, mean ±SD, three replicates): 2.191 ± 0.224 µg/mL; IC50 (anti-DBP MAb [3]; assay buffer with 20% methanol in PBS containing 0.1% BSA, mean ±SD, three replicates): 0.889 ± 0.0186 µg/mL; IC50 (anti-DBP MAb [3]; conjugate coated icELISA standard curve, optimized conditions (DBAP-BSA 0.25 µg/mL, MAb 1:8000)): 0.106 µg/mL; LOD (IC10) (anti-DBP MAb [3]; [6]): 0.0105 µg/mL; dynamic range (IC20–IC80) (anti-DBP MAb [3]; [6]): 0.0252 to 0.445 µg/mL; limit of detection (LOD) (polyclonal antibody; as stated by Zhang et al): 0.02 µg/L; concentration causing 50% of the maximal fluorescence quenching (polyclonal antibody; maximum concentration used did not cause 50% quenching): > 1000 µg/L

With `CCCCC(CC)COC(=O)c1ccccc1C(=O)OCC(CC)CCCC` (stereo not drawn) [DEHP, di(2-ethylhexyl) phthalate] as the molecule, how does the inhibition (anti-DBP MAb [1]; hapten coated icELISA) read?
Its inhibition is 1.12% inhibition at 10 mg/mL.

And the antibody recognition (anti-DBP MAb [1]; hapten coated icELISA)?
Its antibody recognition is “absence of recognition”.

For `CCOC(=O)c1ccccc1C(=O)OCC` [DEP, diethyl phthalate], which inhibition (anti-DBP MAb [1]; hapten coated icELISA) is on record?
Its inhibition is 5.08% inhibition at 10 mg/mL.

And the antibody recognition (anti-DBP MAb [1]; hapten coated icELISA)?
Its antibody recognition is “absence of recognition”.

What does the source list for `COC(=O)c1ccccc1C(=O)OC` [DMP, dimethyl phthalate]?
inhibition (anti-DBP MAb [1]; hapten coated icELISA): 7.98% inhibition at 10 mg/mL; antibody recognition (anti-DBP MAb [1]; hapten coated icELISA): absence of recognition

Which inhibition (anti-DBP MAb [1]; hapten coated icELISA) does the source give for `CCCCCCCCOC(=O)c1ccccc1C(=O)OCCCCCCCC` [DOP, di(n-octyl) phthalate] here?
Its inhibition is 1.15% inhibition at 10 mg/mL.

And the antibody recognition (anti-DBP MAb [1]; hapten coated icELISA)?
Its antibody recognition is “absence of recognition”.
